Experimental data as given in patent US20040001818A1, “Methods of inhibiting angiogenesis using NADPH oxidase inhibitors” (priority 2000, published 2004).
Where two headings read alike, the source gives them in different places.

How the values were obtained:
[1] = tested on: MnSOD protein; conditions: 40 ng/ml VEGF; for MnSOD protein: 0.5-24 hours
Description: (§1) Western blot analyses. Whole cell protein extracts were prepared from serum-starved HCAECs and HPAECs one hour following addition of growth factor-supplemented or mock-treated media. Cells were washed twice with cold phosphate-buffered saline, harvested with a cell scraper, and lysed in ice-cold lysis buffer containing 20 mM HEPES, pH 7.5, 150 mM NaCl, 1% NP-40, 0.1% SDS, 1 mM EDTA, 1 mM DTT, 0.5 mM phenylmethylsulfonyl fluoride (PMSF), and the protease inhibitor cocktail (Boehringer Mannheim, Mannheim, Germany) for one hour. The resulting lysates were centrifuged at 10,000× g for 20 minutes and the supernatants were saved as whole cell protein extracts. Forty micrograms of protein were separated by 10% SDS-PAGE and electrotransferred to nitrocellulose membranes. Membranes were blocked with 5% nonfat dry milk in Tris-buffered saline with 0.1% Tween 20 for one hour at room temperature. The blot was incubated with primary rabbit polyclonal anti-MnSOD IgG (1:1000 dilution) (Santa Cruz Biotechnology Inc., Santa Cruz, Calif., USA) overnight at 4° C., followed by secondary antibody goat-anti-rabbit horseradish peroxidase conjugate (1:1000 dilution) (Pierce, Rockford, Ill., USA). The blot was washed extensively between each incubation step. Peroxidase activity was visualized with an enhanced chemiluminescense substrate system (Amersham, Arlington Heights, Ill., USA). Membranes were stripped and probed for eNOS and β-actin. Flow cytometry. Endothelial cells were labeled with DCFDA and oxidation of DCF was measured by flow cytometry.
Serum-starved HCAECs and HPAECs were treated with 40 ng/ml VEGF for 0.5-24 hours and then harvested for total protein.

[2] = tested on: ROS; test: ROS generation: DCF oxidation by flow cytometry in DCFDA-labeled HCAECs; type: cell-based, human; conditions: relative to basal rate of control cells
Description: as §1
To test whether VEGF increases ROS production in endothelial cells, HCAECs were labeled with […] DCFDA and oxidation of DCF was measured by flow cytometry. […] PMS is known to induce free oxygen radicals.

[3] = tested on: MnSOD mRNA; conditions: HPAEC, 40 ng/ml VEGF
Description: (§2) Cell culture. Human coronary artery endothelial cells (HCAECs) (Clonetics Corporation, San Diego, Calif., USA) and human pulmonary artery endothelial cells (HPAECs) were grown in Endothelial Growth Medium-2-MV (EGM-2-MV) BulletKit (Clonetics Corporation, San Diego, Calif., USA). At 80-90% confluence, the cells were serum-starved in DMEM containing 0.5% FBS for 24 hours and subsequently treated with VEGF-supplemented medium for the times indicated. Human recombinant VEGF was purchased from PeproTech, Inc. (Rocky Hill, N.J., USA). In inhibition studies, the serum-starved HCAEC cells were preincubated with diphenyleneiodonium (DPI), apocynin, allopurinol, L-NAME, or anthrone for one hour and then incubated in the absence or presence of 40 ng/ml VEGF for another hour. In other studies, the serum-starved cells were pretreated with the MEK inhibitor PD98059 at a final concentration of 50 μM or a specific PKC inhibitor bisindolylmaleimide I (BIM; CalBiochem, San Diego, Calif., USA) at a final concentration of 5 μM for 30 minutes prior to addition of growth factors. An equal amount of DMSO was added to the control plates. Northern blot analyses. Ten micrograms total RNA was loaded on a 0.7% formaldehyde-containing agarose gel. The RNA was transferred to nylon membrane, covalently cross-linked with UV radiation, prehybridized for 6 hours, and hybridized for 18 hours at 42° C. with a [^32P]dCTP-labeled cDNA probe containing MnSOD or eNOS cDNA sequence. The membranes were subsequently stripped and probed with a radiolabeled 18S-ribosome probe. For actinomycin D experiments, HCAEC cells were pretreated with 10 μg/ml actinomycin D (Sigma Chemical Company, St. Louis, Mo., USA) for 30 minutes before addition of VEGF and were harvested for total RNA one hour later.
(§3) To determine whether VEGF induced expression of MnSOD in primary endothelial cell cultures, HCAECs and HPAECs were serum starved for 24 hours, treated with 40 ng/ml VEGF for 0, 0.5, 1, 2, 4, 12 and 24 hours, and then harvested for total RNA. Northern blots were performed and probed for human MnSOD. […]

[4] = tested on: eNOS mRNA; conditions: either cell type (HCAEC, HPAEC), 40 ng/ml VEGF
Description: as §2, §3

[5] = tested on: MnSOD mRNA; test: Northern blot of MnSOD mRNA in HCAECs; type: cell-based, human
Description: as §2, with “In inhibition studies, the serum-starved HCAEC cells were preincubated with diphenyleneiodonium (DPI), apocynin, allopurinol, L-NAME, or anthrone for one hour and then incubated in the absence or presence of 40 ng/ml VEGF for another hour.” left out
To determine whether VEGF induced expression of MnSOD in primary endothelial cell cultures, HCAECs and HPAECs were serum starved for 24 hours, treated with 40 ng/ml VEGF for 0, 0.5, 1, 2, 4, 12 and 24 hours, and then harvested for total RNA. Northern blots were performed and probed for human MnSOD. […] The membranes were then stripped and reprobed for eNOS.
To determine whether the response of MnSOD to VEGF was mediated by ROS, HCAECs were serum starved and then treated with VEGF in the absence or presence of inhibitors of NADPH oxidase (DPI, apocynin), xanthine oxidase (allopurinol) and nitric oxide synthase (L-NAME).

[6] = tested on: eNOS protein; conditions: 40 ng/ml VEGF, any time point 0.5-24 hours
Description: as §1, with “Peroxidase activity was visualized with an enhanced chemiluminescense substrate system (Amersham, Arlington Heights, Ill., USA). Membranes were stripped and probed for eNOS and β-actin. Flow cytometry.” left out

[7] = tested on: MnSOD mRNA; test: Northern blot of MnSOD mRNA in organs of mice after intraperitoneal VEGF; type: in vivo, mouse; conditions: four hours after intraperitoneal injection of 20 μg VEGF
Description: Mice and injection of growth factors. Female FVB mice (4 to 8 weeks old; 18 to 22 grams) were obtained from Taconic (Germantown, N.Y., USA). All protocols were approved by the Institutional Animal Care and Use Committee of the Beth Israel Deaconess Medical Center. Mice were injected intraperitoneally with VEGF (1.0 μg/g body weight).
Injection of VEGF into the intraperitoneal cavity of mice results in widespread distribution of the growth factor and phosphorylation of the VEGF receptor, Flk-1. In this study, therefore, organs were removed from mice four hours following intraperitoneal injection of either normal saline or 20 μg VEGF and harvested for total RNA. Northern blot analyses were then carried out to determine whether VEGF induced the expression of a panel of genes, including MnSOD.

VEGF
time of maximal MnSOD protein levels ([1]; HCAECs): 12 to 24 h
MnSOD protein ([1]; HCAECs): significantly induced
time of maximal MnSOD protein levels ([1]; HPAECs): 12 to 24 h
MnSOD protein ([1]; HPAECs): significantly induced
DCF oxidation (ROS production) [2]: no change
time of peak MnSOD mRNA levels [3]: 4 h
MnSOD mRNA levels ([3]; between 2 and 24 hours): increased
eNOS mRNA induction [4]: not induced
time of peak MnSOD mRNA levels ([5]; HCAEC, 40 ng/ml VEGF): 4 h
MnSOD mRNA levels ([5]; HCAEC, 40 ng/ml VEGF, between one hour and 24 hours): increased
VEGF concentration of maximal MnSOD induction ([5]; dose-response 0, 1, 5, 10, 100 ng/ml VEGF): 100 ng/mL
eNOS protein levels [6]: did not increase
MnSOD mRNA levels in other tissues (lung, brain, liver, spleen, skeletal muscle) [7]: not
MnSOD mRNA levels in the heart and the kidney [7]: increased
